Measured values as given in US5256559A, “Methods and compositions for inhibiting platelet aggregation” (Biogen, Inc., priority 1991, dated 1993).
Where two headings read alike, the source gives them in different places.

Assays:
[1] = target: thrombin (Homo sapiens, UniProt P00734); conditions: cited from earlier work
[2] = test system: plasma; assay: activated partial thromboplastin time (APTT) of plasma from patients recovered from heparin-induced thrombocytopenia; set-up: species or system human; conditions: concentrations used in the platelet studies, FIGS. 12A and 12B
Method: We isolated whole blood from patients who had recovered from heparin-induced thrombocytopenia. We then centrifuged the blood at 4° C. for 15 minutes at 2,000× g in a Sorval rotor to obtain plasma. […] We measured APTT semi-automatically using a Coagamate XC (General Diagnostics Organon Teknika).

Hirudin
Kd ([1]; overall tight binding, read-out: Kd, binding to thrombin in a 1:1 stoichiometric complex): ~0.02 nM
Kd ([1]; site separate from the catalytic site, read-out: Kd, "low" affinity site on the thrombin molecule): ~10 nM

heparin
prolongation of APTT [2]: sufficient to prolong APTT into the desired therapeutic range
